Measured values as given in PMC6692352, “DF2726A, a new IL-8 signalling inhibitor, is able to counteract chemotherapy-induced neuropathic pain” (Scientific Reports, 2019).
Entries after “also recorded” stand apart in the source; their conditions may differ.

What was measured:
[1] = system: spontaneous human polimorphonuclear neutrophil (hPMN) migration; assay: Spontaneous hPMN migration; type: cell-based
Excerpt: chemotherapy-induced neuropathic pain”
Benedetti, Antonio Giordano, Annamaria Cimini, Marcello Allegretti.
Chemokines were from PeproTech (London, UK). Chemicals and cell culture reagents were from Sigma Aldrich (Saint Louis, MI, USA).
Cell isolation and culture
L’Aquila, Italy. Ethical clearance was obtained to perform these experiments. Human PMNs were […]
blood cells as previously described 1.
Cell viability, as measured by Trypan Blue dye exclusion, was greater than 98%. […]
microchemotaxis chamber, as previously described 2. Briefly, 25 µl of control medium (PBS for […]
the lower compartment of the chemotaxis chamber. […]
(§1) vehicle were seeded in the upper compartment. The two compartments were separated by 5 µm pre-size polycarbonate filter (polyvinylpyrrolidone-free for PMN chemotaxis). The chamber was […]
(§2) Physicochemical characterization […]
(§3) and a turbidity-sensing device. […]
(§4) water/HBSS to a final concentration of 10 μM. Cell membrane homogenates (48 μg protein) were […]

[2] = system: IL-8-induced hPMN chemotaxis; settings: read-out: IC50 (CXCL8 / IL-8-induced hPMN chemotaxis); hPMN pre-incubated 15 min at 37°C, migration 45 min
Excerpt: Human mononuclear cells and PMNs were obtained from buffy coats of heparinized peripheral
blood from adult healthy volunteers courtesy of Centro Trasfusionale, Ospedale S. Salvatore,
prepared to 99% purity by dextran sedimentation followed by hypotonic lysis of contaminating red
blood cells as previously described 1. PMNs were washed once with saline and then resuspended at
1.5 x 10^6/ml in HBSS for migration assay. Cell viability, as measured by Trypan Blue dye exclusion, was greater than 98%.
Migration of human PMNs was evaluated by microchamber technique in a 48-well
monocytes and HBSS for PMNs) or chemoattractant (CXCL1, CXCL8) solutions were seeded in
the lower compartment of the chemotaxis chamber. Fifty µl of cell suspension (1.5 x 10^6/ml) pre-
immersion fields at high magnification (100X; Zeiss microscope) were counted after sample

[3] = system: paclitaxel-induced mechanical and cold allodynia; assay: Paclitaxel-induced mechanical and cold allodynia; type: in vivo; settings: 30 mg/kg os for 14 days, rats
Procedure: 5/8 inch needles; Chemil s.r.l., Padova, Italy) at 0.08, 0.5, 1, 3, 6, 12, 24, 36 and 48 h for i.v. dosing and at 0.25, 0.5, 1, 3, 6, 12, 24, 36 and 48 h for oral dosing. After each blood withdrawal, the catheters were washed with 0.15-0.2 mL of sterile physiological saline and filled with 0.03 mL of heparin saline solution (0.25 U.I/mL). The heparinized blood was immediately centrifuged (8000 RPM for 5 min at approximately 4°C) and the resultant plasma transferred into vials and stored at - 20°C until analysis. DF2726A concentrations were quantified by HLPC-MS/MS using a chromatographic method with a lower limit of quantitation of 1 ng·mL -1. Non-compartmental analysis (Gibaldi and Perrier, 1982) were used to calculate the pharmacokinetic parameters using a MKModel by Nick Holford software Version 4, (Biosoft, Ferguson, MO 63 135, USA).
DF2726A was administered at a dose of 30 mg/2ml/kg/os for 14 consecutive days starting 3 days before paclitaxel administration and continuing for 11 days after the first administration of […]
Induction of neuropathy by paclitaxel
Rats received 4 once daily intraperitoneal (i.p.) injections of paclitaxel (Tocris, Italy) (2 mg/kg/day i.p.; cumulative dose of 8 mg/kg i.p.) or vehicle (saline, 1ml/kg/day i.p.), administered on alternate days (days 0, 2, 4, and 6) as descr ibed 4. […]
Pac+Saline group. […] Data are expressed as […]

CYP 1A2 [4] = molecular target: CYP 1A2 (Homo sapiens, UniProt P05177); type: in vitro ADME
Chain of CYP 1A2 (Homo sapiens, UniProt P05177) (P05177 whole entry): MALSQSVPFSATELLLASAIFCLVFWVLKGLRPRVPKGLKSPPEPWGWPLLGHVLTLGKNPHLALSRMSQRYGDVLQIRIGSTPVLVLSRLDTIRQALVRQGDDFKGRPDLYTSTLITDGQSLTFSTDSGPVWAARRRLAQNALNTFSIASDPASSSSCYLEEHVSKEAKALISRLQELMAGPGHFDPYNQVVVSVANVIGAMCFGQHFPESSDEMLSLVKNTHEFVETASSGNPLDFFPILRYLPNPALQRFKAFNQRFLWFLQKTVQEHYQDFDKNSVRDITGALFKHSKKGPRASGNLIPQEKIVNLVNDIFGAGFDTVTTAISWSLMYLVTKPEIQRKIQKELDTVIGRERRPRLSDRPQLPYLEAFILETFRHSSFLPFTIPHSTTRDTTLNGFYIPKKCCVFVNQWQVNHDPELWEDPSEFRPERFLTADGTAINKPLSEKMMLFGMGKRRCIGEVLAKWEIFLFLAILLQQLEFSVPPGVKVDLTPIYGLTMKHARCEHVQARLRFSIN
Excerpt: (§5) Table 1 Physicochemical and in Vitro ADME Properties of DF2726A. | column: DF2726A

CYP 1A2 [5] = type: in vitro ADME
Excerpt: as §5

[6] = Aqueous solubility (SiriusT3); type: physicochemical
Procedure: as §1, §2, §3, §4

human COX2 = molecular target: T1, human COX2 (Homo sapiens, UniProt P35354); assay: COX2 assay, PGE2 formation from arachidonic acid, recombinant enzyme; type: biochemical
T1 construct: host or cells: Sf-9
T1 sequence (P35354 18-604): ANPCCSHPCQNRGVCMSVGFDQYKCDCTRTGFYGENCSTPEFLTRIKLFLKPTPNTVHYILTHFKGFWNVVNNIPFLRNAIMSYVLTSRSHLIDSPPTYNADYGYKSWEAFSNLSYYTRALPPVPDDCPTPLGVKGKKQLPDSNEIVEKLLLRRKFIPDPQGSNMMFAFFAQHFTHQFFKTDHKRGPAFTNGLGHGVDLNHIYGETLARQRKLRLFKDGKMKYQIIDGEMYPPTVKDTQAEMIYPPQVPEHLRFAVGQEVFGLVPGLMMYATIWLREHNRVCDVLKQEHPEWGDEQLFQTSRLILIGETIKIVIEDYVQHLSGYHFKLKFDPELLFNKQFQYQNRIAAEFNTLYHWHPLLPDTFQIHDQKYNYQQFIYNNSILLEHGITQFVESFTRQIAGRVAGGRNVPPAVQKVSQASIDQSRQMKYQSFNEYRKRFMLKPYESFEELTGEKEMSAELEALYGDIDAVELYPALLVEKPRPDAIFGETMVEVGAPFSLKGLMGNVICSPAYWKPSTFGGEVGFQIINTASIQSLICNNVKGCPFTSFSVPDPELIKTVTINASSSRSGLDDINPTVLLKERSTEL
Procedure: Protein binding in human, dog and rat plasma […]
in DMSO at a final concentration of 2 mM. […]
plasma to obtain a final concentration of 10 µM. Human, dog and rat plasma (200 µL) in triplicate […]
vials for LC-MS/MS analysis. […]
mM Tris-HCl (pH 8.0), 1.98 mM phenol and 1.02 µM hematine. Thereafter, the reaction was initiated by adding 4 µM (COX1) or 2 µM (COX2) of arachidonic acid and the mixture was incubated for 5 min at RT. For basal control measurements, arachidonic acid was omitted from the reaction mixture. Following incubation, t he reaction was stopped by the addition of 1 M HCl then 1 M Tris/HCl (pH 8.0) followed by cooling to 4°C.
The fluorescence acceptor (d2 labeled PGE2) and the fluorescence donor (anti -PGE2 antibody labeled with europium Cryptate) were then added. After 120 min, the fluorescence transfer corresponding to the amount of residual PGE2 was measured at λex=337 nm, λem=620 nm and λem=665 nm using a microplate reader (Envision, Perkin Elmer). The enzyme activity was determined by dividing the signal measured at 665 nm by that measured at 620 nm (ratio). The results were expressed as a percent age inhibition of the control enzyme activity. The standard inhibitory reference compound was Diclofenac, which was tested in each experiment at several concentrations to obtain an inhibition curve from which its IC50 value was calculated. […]

CC(C)(C(=O)O)c1ccc(Nc2nc(C(F)(F)F)cs2)cc1 [DF2726A]
Inhibition of spontaneous hPMN migration per se [1]: did not inhibit
IC50 [2]: 0.01 ± 0.005 µM
Effect on paclitaxel-induced mechanical and cold allodynia [3]: prevented
IC50 (CYP 1A2 [4]): > 30 µM
IC50 (CYP 1A2 [5]): > 100 µM
Acqueous solubility [6]: >30 mg/mL
COX 2 Inhibition (50 µM) (human COX2): did not inhibit; also recorded: No Inhibition observed
